The source of these data is patent US20200188237A1, “ENDODONTIC FORMULATIONS CONTAINING CYSTEAMINE AND CYSTEAMINE DERIVATIVES AND USES THEREOF” (University of Florida Research Foundation, Inc., priority 2017, published 2020).

The test system of experiment [1] is Enterococcus faecalis (OG1RF). Briefly: Bacterial removal from root canals of inoculated extracted human mandibular molars, instrumentation/irrigation, qPCR. Type of experiment: cell-based. As to conditions: pre- vs post-instrumentation/irrigation, human mandibular molars incubated 14 days anaerobic. Here is the method: (§1) Forty human mandibular molars were accessed, sterilized, inoculated with Enterococcus faecalis (OG1RF) and Fusobacterium nucleatum (ATCC10953), and incubated for 14 days under anaerobic conditions. Teeth were divided into 3 groups (n=10): 1) 6.15% NaOCl, 2) 8.25% NaOCl, 3) Cysteamine. Controls (n=5): negative without inoculation and positive without instrumentation/irrigation. Mesiobuccal and mesiolingual canals were instrumented using Vortex Blue to 30/.04 and the corresponding irrigant, followed by neutralization with EDTA and saline. Samples were collected pre- and post-instrumentation/irrigation. Total DNA was extracted and quantitative real-time PCR was performed. Data were analyzed using one-way ANOVA with Bonferroni's multiple comparisons (p<0.05). See FIG. 1 for a schematic representation of the methods.
(In general: Real-time PCR tracks product formation cycle by cycle.)

Experiment [2] has as its system Fusobacterium nucleatum (ATCC10953). The description is as above. Type of experiment: cell-based. The note with it: pre- vs post-instrumentation/irrigation, human mandibular molars incubated 14 days anaerobic. Here is the method: as §1

As for `NCCS` [Cysteamine], the “percent reduction in Enterococcus faecalis” value in experiment [1] (Cysteamine irrigant) is listed as 60%. Besides, the “percent reduction in Fusobacterium nucleatum” value in experiment [2] (Cysteamine irrigant) is 68.5%.
`OCl` [NaOCl, sodium hypochlorite]: the results for the “percent reduction in Enterococcus faecalis” value in experiment [1] (6.15% NaOCl irrigant) and in experiment [1] (8.25% NaOCl irrigant) were 49% and 54%, respectively. The figures for the “percent reduction in Fusobacterium nucleatum” value in experiment [2] (6.15% NaOCl irrigant) and in experiment [2] (8.25% NaOCl irrigant) were 59.9% and 63.4%, respectively.
